Laboratory results reported in patent US20080255206A1, “Rxr Agonists and Antagonists, Alone or in Combination with Ppar Ligands, in the Treatment of Metabolic and Cardiovascular Diseases” (priority 2005, published 2008).

Tests used:
db/db mice = assay: Investigation with db/db mice (blood glucose and lipids); type: in vivo, mouse; conditions: for Glucose Diff. D o − D 12 / HDL-cholesterol Diff. D o − D 12 / Total cholesterol Diff. D o − D 12 / Triglycerides Diff. D o − D 12: change day 0 to day 12; for Glucose D o / HDL-cholesterol D o / Total cholesterol D o / Triglycerides D o: day 0; for Glucose D 12 / HDL-cholesterol D 12 / Total cholesterol D 12 / Triglycerides D 12: day 12; for Glucose D-4 / HDL-cholesterol D-4 / Total cholesterol D-4 / Triglycerides D-4: day −4
Description: The following compounds are investigated and compared to placebo (vehicle control).
The mentioned 3 compounds are tested in db/db mice during a time when diabetes is in a rapid developing stage. […] Each dosage group and the vehicle group comprise 7 mice. The suspensions used are prepared with peroxide free arachis oil as vehicle. Blood samples are collected by retro-orbital bleeding at days −4, 0 and 12. The blood levels of glucose, triglycerides, total cholesterol, and HDL-cholesterol are determined.
For evaluation of efficacy, the difference between the values of glucose, triglycerides, total cholesterol and HDL-cholesterol changing from day 0 to day 12 is determined and expressed in %. […] Overall evaluation consists in determining the efficacy of the compounds by calculating the whole extent of the effect expressed in %. […] This value is considered as a valuable indicator for the efficacy of the investigated compounds administered in a tolerated dose.

[1] = Pharmacokinetics, daily oral gavage for 4 weeks in rats; type: in vivo
Description: Daily administration of compound 15 by oral gavage for 4 weeks in rats: Compound 15 is administered daily by oral gavage as an oily suspension in doses of 50, 250, 500 and 750 mg/kg/day for 4 weeks in rats. Plasma samples are taken 2 hours post dosing on days 1, 22 and 26 and analysed by a gradient HPLC method with UV detection. […] With the 250 mg/kg/day dosage, plasma levels change from 4945 ng/ml on day 1 to 4190 ng/ml on day 22 and to 4530 ng/ml on day 26. Exposure of the rats to compound 15 results in a dose-proportional way in the doses between 50 and 250 mg/kg/day.

normal skin of mice = assay: Effect on normal, non-inflamed skin of mice; type: in vivo, C57BL/6 mice
Description: The effect of the RXR antagonist compound 15 on normal skin of mice is investigated. The ears of C57BL/6 mice are treated epicutaneously (topically) for 4 consecutive days with compound 15 in a concentration of 0.05% and 2.5% in acetone/ethanol (1:1, v/v). Comparison with vehicle control. Skin reactions, in particular inflammation, erythema, desquamation, and edema, are observed daily. Myeloperoxidase (MPO) activity is determined. The activity of MPO is considered the most sensitive criterium for the assessment of inflammation of the skin (see above, Examples 6 and 7).

MMP-1 mRNA = MMP-1 mRNA in synovial fibroblasts (real time PCR); type: cell-based, human
Description: Furthermore, it is determined whether this is accompanied by a modulation in the accumulation of the mRNA encoding catabolic enzyme matrix metalloproteinase-1 (MMP-1), responsible for degradation of human cartilage and consequently joint destruction in man. Adherent synovial fluid cells taken from a patient with RA are used after 5 passages in an in vitro assay for cartilage destruction. The cells incubated in flasks coated with 0.1% (0.1 g/100 ml) human cartilage powder are fixed using Matrigel® (BD Biosciences, Becton, Dickinson & Co., Boston, Mass., USA).
This is conducted in the presence or absence of IL-1β (100 pg/ml).

[2] = 30 mg/kg/day group versus vehicle group

CCCCOc1c(\C(C)=C/C=C/C(C)=C/C(=O)O)cc(C(C)(C)C)cc1C(C)(C)C [Compound 15, (2E,4E,6Z)-7-[2-butoxy-3,5-bis(1,1-dimethylethyl)phenyl]-3-methyl-2,4,6-octatrienoic acid]
Glucose Diff. D o − D 12 (db/db mice; 0.3 mg/kg/day i.p.): +20.8% | HDL-cholesterol Diff. D o − D 12 (db/db mice; 0.3 mg/kg/day i.p.): −5.0% | Total cholesterol Diff. D o − D 12 (db/db mice; 0.3 mg/kg/day i.p.): −5.7% | Triglycerides Diff. D o − D 12 (db/db mice; 0.3 mg/kg/day i.p.): −0.6% | Glucose D o (db/db mice; 0.3 mg/kg/day i.p.): 226 mg/dL | HDL-cholesterol D o (db/db mice; 0.3 mg/kg/day i.p.): 3.00 mmol/L | Total cholesterol D o (db/db mice; 0.3 mg/kg/day i.p.): 4.05 mmol/L | Triglycerides D o (db/db mice; 0.3 mg/kg/day i.p.): 1.78 mmol/L | Glucose D 12 (db/db mice; 0.3 mg/kg/day i.p.): 273 mg/dL | HDL-cholesterol D 12 (db/db mice; 0.3 mg/kg/day i.p.): 2.85 mmol/L | Total cholesterol D 12 (db/db mice; 0.3 mg/kg/day i.p.): 3.82 mmol/L | Triglycerides D 12 (db/db mice; 0.3 mg/kg/day i.p.): 1.77 mmol/L | Glucose D-4 (db/db mice; 0.3 mg/kg/day i.p.): 153 mg/dL | HDL-cholesterol D-4 (db/db mice; 0.3 mg/kg/day i.p.): 2.43 mmol/L | Total cholesterol D-4 (db/db mice; 0.3 mg/kg/day i.p.): 4.52 mmol/L | Triglycerides D-4 (db/db mice; 0.3 mg/kg/day i.p.): 2.28 mmol/L | Glucose levels (in words) (db/db mice; 3 mg/kg/day): markedly lowers glucose levels | HDL-cholesterol levels (in words) (db/db mice; 3 mg/kg/day): markedly raised | Triglyceride levels (in words) (db/db mice; 3 mg/kg/day): markedly decreasing | Glucose Diff. D o − D 12 (db/db mice; 3.0 mg/kg/day i.p.): +4.1% | HDL-cholesterol Diff. D o − D 12 (db/db mice; 3.0 mg/kg/day i.p.): +18.4% | Total cholesterol Diff. D o − D 12 (db/db mice; 3.0 mg/kg/day i.p.): −11.1% | Triglycerides Diff. D o − D 12 (db/db mice; 3.0 mg/kg/day i.p.): −44.9% | Glucose D o (db/db mice; 3.0 mg/kg/day i.p.): 270 mg/dL | HDL-cholesterol D o (db/db mice; 3.0 mg/kg/day i.p.): 2.88 mmol/L | Total cholesterol D o (db/db mice; 3.0 mg/kg/day i.p.): 3.95 mmol/L | Triglycerides D o (db/db mice; 3.0 mg/kg/day i.p.): 2.16 mmol/L | Glucose D 12 (db/db mice; 3.0 mg/kg/day i.p.): 281 mg/dL | HDL-cholesterol D 12 (db/db mice; 3.0 mg/kg/day i.p.): 3.41 mmol/L | Total cholesterol D 12 (db/db mice; 3.0 mg/kg/day i.p.): 4.39 mmol/L | Triglycerides D 12 (db/db mice; 3.0 mg/kg/day i.p.): 1.19 mmol/L | Glucose D-4 (db/db mice; 3.0 mg/kg/day i.p.): 192 mg/dL | HDL-cholesterol D-4 (db/db mice; 3.0 mg/kg/day i.p.): 2.47 mmol/L | Total cholesterol D-4 (db/db mice; 3.0 mg/kg/day i.p.): 4.62 mmol/L | Triglycerides D-4 (db/db mice; 3.0 mg/kg/day i.p.): 2.15 mmol/L | Glucose levels (in words) (db/db mice; 30 mg/kg/day): decrease markedly | HDL-cholesterol levels (in words) (db/db mice; 30 mg/kg/day): markedly increased | Total cholesterol levels (in words) (db/db mice; 30 mg/kg/day): slightly higher | Triglyceride levels (in words) (db/db mice; 30 mg/kg/day): very strongly | Overall extent of the effect on blood levels of Glucose (db/db mice; [2]): −58.0% | Overall extent of the effect on blood levels of HDL-cholesterol (db/db mice; [2]): +14.2% | Overall extent of the effect on blood levels of Total cholesterol (db/db mice; [2]): +14.9% | Overall extent of the effect on blood levels of Triglycerides (db/db mice; [2]): −73.0% | Glucose Diff. D o − D 12 (db/db mice; 30 mg/kg/day i.p.): −8.8% | HDL-cholesterol Diff. D o − D 12 (db/db mice; 30 mg/kg/day i.p.): +10.4% | Total cholesterol Diff. D o − D 12 (db/db mice; 30 mg/kg/day i.p.): +6.1% | Triglycerides Diff. D o − D 12 (db/db mice; 30 mg/kg/day i.p.): −50.9% | Glucose D o (db/db mice; 30 mg/kg/day i.p.): 294 mg/dL | HDL-cholesterol D o (db/db mice; 30 mg/kg/day i.p.): 3.07 mmol/L | Total cholesterol D o (db/db mice; 30 mg/kg/day i.p.): 4.27 mmol/L | Triglycerides D o (db/db mice; 30 mg/kg/day i.p.): 2.18 mmol/L | Glucose D 12 (db/db mice; 30 mg/kg/day i.p.): 268 mg/dL | HDL-cholesterol D 12 (db/db mice; 30 mg/kg/day i.p.): 3.39 mmol/L | Total cholesterol D 12 (db/db mice; 30 mg/kg/day i.p.): 4.53 mmol/L | Triglycerides D 12 (db/db mice; 30 mg/kg/day i.p.): 1.07 mmol/L | Glucose D-4 (db/db mice; 30 mg/kg/day i.p.): 184 mg/dL | HDL-cholesterol D-4 (db/db mice; 30 mg/kg/day i.p.): 2.45 mmol/L | Total cholesterol D-4 (db/db mice; 30 mg/kg/day i.p.): 3.98 mmol/L | Triglycerides D-4 (db/db mice; 30 mg/kg/day i.p.): 1.85 mmol/L | Plasma level 2 hours post dosing ([1]; 50 mg/kg/day, day 1): 2205 ng/mL | Plasma level 2 hours post dosing ([1]; 50 mg/kg/day, day 22): 2235 ng/mL | Plasma level 2 hours post dosing ([1]; 50 mg/kg/day, day 26): 2505 ng/mL | Plasma level 2 hours post dosing ([1]; 250 mg/kg/day, day 1): 4945 ng/mL | Plasma level 2 hours post dosing ([1]; 250 mg/kg/day, day 22): 4190 ng/mL | Plasma level 2 hours post dosing ([1]; 250 mg/kg/day, day 26): 4530 ng/mL | Clinical signs or symptoms of skin inflammation on normal skin (normal skin of mice; epicutaneous 0.05% and 2.5%, 4 consecutive days): does not induce clinical signs or symptoms of a skin inflammation | MPO activity compared to the vehicle control (in words) (normal skin of mice; normal skin, 0.05%): no significant change | MPO activity, % of that of the vehicle control (normal skin of mice; normal skin, 2.5%): 57% | MMP-1 mRNA, fold increase of baseline value (MMP-1 mRNA; 10^−7 M, after 24 hours): 0.68 relative units | MMP-1 mRNA, fold increase of baseline value (MMP-1 mRNA; 10^−8 M, 0 hours): 1 relative units | MMP-1 mRNA, fold increase of baseline value (MMP-1 mRNA; 10^−8 M, 2 hours): 1.13 relative units | MMP-1 mRNA, fold increase of baseline value (MMP-1 mRNA; 10^−8 M, 6 hours): 0.81 relative units | MMP-1 mRNA, fold increase of baseline value (MMP-1 mRNA; 10^−8 M, 12 hours): 1.12 relative units | MMP-1 mRNA, fold increase of baseline value (MMP-1 mRNA; 10^−8 M, 24 hours): 0.87 relative units | MMP-1 mRNA, fold increase of baseline value (MMP-1 mRNA; 10^−8 M, 48 hours): 0.83 relative units | MMP-1 mRNA, fold increase of baseline value (MMP-1 mRNA; 10^−8 M, after 24 hours): 1.12 relative units | MMP-1 mRNA, fold increase of baseline value (MMP-1 mRNA; 10^−9 M, after 24 hours): 1.05 relative units
